Test results from US12595478B2, “Crispr-Cas systems having destabilization domain” (THE BROAD INSTITUTE, INC., priority 2016, dated 2026).

Legend:
[1] = test system: human embryonic stem cells (hESCs); test: Mutagenic NHEJ by double nickase in human embryonic stem cells; format: cell-based; details: Cas9-D10A and two gRNAs targeted to different strands at the same location, data not shown
Description: In some embodiments, a vector comprises a regulatory element operably linked to an enzyme-coding sequence encoding a CRISPR protein (i.e. CRISPR/Cas system effector or CRISPR effector). […] The CRISPR enzyme is Cas9, and may be Cas9 from S. pyogenes or S. pneumoniae. In some embodiments, the CRISPR enzyme directs cleavage of one or both strands at the location of a target sequence, such as within the target sequence and/or within the complement of the target sequence. In some embodiments, the CRISPR enzyme directs cleavage of one or both strands within about 1, 2, 3, 4, 5, 6, 7, 8, 9, 10, 15, 20, 25, 50, 100, 200, 500, or more base pairs from the first or last nucleotide of a target sequence. In some embodiments, a vector encodes a CRISPR enzyme that is mutated to with respect to a corresponding wild-type enzyme such that the mutated CRISPR enzyme lacks the ability to cleave one or both strands of a target polynucleotide containing a target sequence. […] In some embodiments, a Cas9 nickase may be used in combination with guide sequenc(es), e.g., two guide sequences, which target respectively sense and antisense strands of the DNA target. This combination allows both strands to be nicked and used to induce NHEJ.

[2] = molecular target: engineered Cas9-SAM system comprising a DD (ER50) (Homo sapiens, UniProt P03372, G521R/L384M/M421G/N519S/T371A/Y537S); details: ligand 4HT
engineered Cas9-SAM system comprising a DD (ER50), sequence (P03372 305-549 T371A/L384M/M421G/N519S/G521R/Y537S limits assumed): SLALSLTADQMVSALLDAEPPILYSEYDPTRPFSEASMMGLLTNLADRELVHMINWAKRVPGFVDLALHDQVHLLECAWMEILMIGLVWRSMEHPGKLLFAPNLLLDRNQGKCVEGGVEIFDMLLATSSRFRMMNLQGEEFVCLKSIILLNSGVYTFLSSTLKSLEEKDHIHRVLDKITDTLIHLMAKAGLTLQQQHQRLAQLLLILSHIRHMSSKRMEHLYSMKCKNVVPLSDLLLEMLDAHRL

[3] = test system: engineered Cas9 system comprising a functionalized guide with DHFR destabilization domain; test: Induction of ASCL1 mRNA by engineered DD-Cas9 SAM with stabilizing ligand (FIG. 11); format: cell-based; details: cells transiently transfected with DD-Cas9 SAM, treated with stabilizing ligand
Protocol: FIG. 11. […] Cells were transiently transfected with engineered DD-Cas9 SAM and ASCL1 mRNA was measured. Compared to untransfected cells, DD-Cas9-SAM induced expression of ASCL1 mRNA is observed.

[4] = test system: ER50.Cas9.ER50; test: Cas9-mediated eGFP knockout (eGFP disruption) in U20S.eGFP-PEST cells nucleofected with ER50.Cas9.ER50; format: cell-based; details: increasing concentrations 0.5-1000 nM, 48 h
Description: FIG. 3A-3B. […] (a) Representative images of conditional control of Cas9-mediated eGFP knockout in U20S.eGFP-PEST cells. […] Error bars represent standard deviation from biological replicates (n=6).

[5] = molecular target: ER50.MS2.p65.HSF1 (Homo sapiens, UniProt P03372, G521R/L384M/M421G/N519S/T371A/Y537S); details: targeted to ASCL1; increasing concentrations of 40HT, 18 h, qPCR
ER50.MS2.p65.HSF1, sequence (P03372 with tags, fused parts or gaps T371A/L384M/M421G/N519S/G521R/Y537S limits assumed): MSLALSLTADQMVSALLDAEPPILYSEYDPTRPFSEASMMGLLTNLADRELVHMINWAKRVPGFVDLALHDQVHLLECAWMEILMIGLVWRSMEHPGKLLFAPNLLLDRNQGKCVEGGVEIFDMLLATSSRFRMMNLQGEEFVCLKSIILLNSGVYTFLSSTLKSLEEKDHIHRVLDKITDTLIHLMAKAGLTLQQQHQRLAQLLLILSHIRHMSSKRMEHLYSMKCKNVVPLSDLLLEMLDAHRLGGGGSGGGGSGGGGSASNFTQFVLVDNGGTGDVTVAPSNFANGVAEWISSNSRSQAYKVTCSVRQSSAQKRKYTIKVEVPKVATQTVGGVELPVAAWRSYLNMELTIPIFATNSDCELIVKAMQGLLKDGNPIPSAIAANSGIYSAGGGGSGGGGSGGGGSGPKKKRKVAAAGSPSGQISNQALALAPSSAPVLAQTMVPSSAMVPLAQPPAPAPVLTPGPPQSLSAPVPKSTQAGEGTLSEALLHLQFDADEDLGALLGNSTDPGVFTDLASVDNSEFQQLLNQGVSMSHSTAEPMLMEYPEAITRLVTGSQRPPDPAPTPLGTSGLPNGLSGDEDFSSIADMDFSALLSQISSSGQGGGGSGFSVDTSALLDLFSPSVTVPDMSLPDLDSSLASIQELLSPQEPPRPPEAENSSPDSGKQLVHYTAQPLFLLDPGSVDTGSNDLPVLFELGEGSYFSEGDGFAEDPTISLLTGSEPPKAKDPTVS
Description: Multidimensional ‘chemical’ control of endogenous transcript levels. […] DHFR.PP7.VP64 was targeted to ILIRN, and ER50.MS2.p65.HSF1 was targeted to ASCL1. […] Error bars represent s.e.m. from biological replicates (n=3; a,c) or ±s.d. across technical replicates (n=4; b,d).

[6] = molecular target: ER50.SaCas9.ER50 (Homo sapiens, UniProt P03372, G521R/L384M/M421G/N519S/T371A/Y537S); details: cells expressing ER50.SaCas9.ER50 treated with 40HT
ER50.SaCas9.ER50, sequence (P03372 305-549 T371A/L384M/M421G/N519S/G521R/Y537S limits assumed): as the sequence (P03372 305-549 T371A/L384M/M421G/N519S/G521R/Y537S limits assumed) above
Description: Assessment of dose-responsiveness of DD-regulated SaCas9 gene editing activity.

[7] = test system: Drosophila; test: TMP-controlled gene drive in Drosophila for green body color; format: in vivo; details: in the presence of TMP, wt Cas9 for comparison, DMSO control ~50% (Mendelian inheritance)
[8] = test system: DHFR-SpCas9-DHFR
[9] = test system: temperature-sensitive mutant of mammalian DHFR (DHFRts); details: cells expressing DHFRts; cited from earlier work
[10] = test system: dystrophin; details: average, across 48 weeks; cited from earlier work
[11] = test system: DHFR; test: Binding of photocaged TMP derivative to DHFR; details: before exposure to light (NVOC group attached)
[12] = test system: human FKBP12; details: FKBP12 mutant DD; cited from earlier work

Question: For “double nickase: Cas9-D10A and two gRNAs targeted to different strands at the same location”, which “efficiency of inducing mutagenic NHEJ relative to nuclease (regular Cas9 without D10 mutation)” value [1] is on record?
Answer: Its value is “about 50%”.

Question: Which results are given for 4-hydroxytamoxifen [40HT]?
Answer: SAM-dependent expression of ASCL1 mRNA [2]: Increased; ASCL1 mRNA [3]: significant increase; genome editing (dosability) [4]: High dosability; endogenous gene upregulation (dose response) [5]: Highly dose-responsive; nuclease activity (indel activity, Surveyor assay) [6]: dose dependent increase

Question: For `COc1cc(Cc2cnc(N)nc2N)cc(OC)c1OC` [TMP, trimethoprim], which “inheritance of the green-body color” value [7] is on record?
Answer: Its value is 84%.

Question: What about the “SpCas9-mediated knockout of the ebony gene” value ([8]; TMP dose dependence) of the same compound?
Answer: The value was “Dose-dependent”.

Question: What about the “time post TMP removal from the fly food within which % ebony knockout is lowered” value ([8]; TMP removal from the fly food) of the same compound?
Answer: The value was no more than 24 h.

Question: Which “degradation of DHFRts” value [9] does the source give for `CN(Cc1cnc2nc(N)nc(N)c2n1)c1ccc(C(=O)N[C@@H](CCC(=O)O)C(=O)O)cc1` [methotrexate] here?
Answer: The value was “inhibited degradation of the protein partially”.

Question: For eteplirsen, which “dystrophin positive fibers compared to baseline” value [10] is on record?
Answer: The value was 47%.

Question: Which “binding to DHFR” value [11] does the source give for `COc1cc(COC(=O)Nc2ncc(Cc3cc(OC)c(OC)c(OC)c3)c(N)n2)c([N+](=O)[O-])cc1OC` [TMP-NVOC] here?
Answer: The value was “prevents photocaged TMP-NVOC from binding to DHFR”.

Question: Which “binding to and stabilization of the DD” value [12] does the source give for `CC[C@H](C(=O)N1CCCC[C@H]1C(=O)O[C@H](CCc1ccc(OC)c(OC)c1)c1cccc(OCCN2CCOCC2)c1)c1cc(OC)c(OC)c(OC)c1` [Shield-1] here?
Answer: Its value is “dose-dependent manner”.
